According to the NIST ThermoML archive (doi:10.1021/je200721d):

Assay: xn = mol fraction of the nth substance listed
Conditions: Liquid, Vibrating tube method

CCCCCCCC [octane] + CCCCCC
Conditions | mass density [kg/m3]
312.91 K, 1000 kPa, x2 = 0.2199 | 680.43
312.91 K, 2000 kPa, x2 = 0.2199 | 681.31
312.91 K, 3000 kPa, x2 = 0.2199 | 682.24
312.91 K, 4000 kPa, x2 = 0.2199 | 683.15
312.91 K, 5000 kPa, x2 = 0.2199 | 684.07
312.91 K, 6000 kPa, x2 = 0.2199 | 684.99
312.91 K, 7000 kPa, x2 = 0.2199 | 685.92
312.91 K, 8000 kPa, x2 = 0.2199 | 686.87
312.91 K, 9000 kPa, x2 = 0.2199 | 687.8
312.91 K, 10000 kPa, x2 = 0.2199 | 688.73
312.91 K, 11000 kPa, x2 = 0.2199 | 689.64
312.91 K, 12000 kPa, x2 = 0.2199 | 690.55
312.91 K, 13000 kPa, x2 = 0.2199 | 691.47
312.91 K, 14000 kPa, x2 = 0.2199 | 692.36
312.91 K, 15000 kPa, x2 = 0.2199 | 693.23
312.91 K, 16000 kPa, x2 = 0.2199 | 694.09
312.91 K, 17000 kPa, x2 = 0.2199 | 694.93
312.91 K, 18000 kPa, x2 = 0.2199 | 695.75
312.91 K, 19000 kPa, x2 = 0.2199 | 696.54
312.91 K, 20000 kPa, x2 = 0.2199 | 697.32
312.91 K, 21000 kPa, x2 = 0.2199 | 698.1
312.91 K, 22000 kPa, x2 = 0.2199 | 698.86
312.91 K, 23000 kPa, x2 = 0.2199 | 699.56
312.91 K, 24000 kPa, x2 = 0.2199 | 700.29
312.91 K, 25000 kPa, x2 = 0.2199 | 700.96
313.14 K, 1000 kPa, x2 = 0.1654 | 682.2
313.14 K, 1000 kPa, x2 = 0.5749 | 666.9
313.14 K, 1000 kPa, x2 = 0.7995 | 655.29
313.14 K, 1000 kPa, x2 = 0.9308 | 647.6
313.14 K, 2000 kPa, x2 = 0.1654 | 683.1
313.14 K, 2000 kPa, x2 = 0.5749 | 667.85
313.14 K, 2000 kPa, x2 = 0.7995 | 656.27
313.14 K, 2000 kPa, x2 = 0.9308 | 648.65
313.14 K, 3000 kPa, x2 = 0.1654 | 684.01
313.14 K, 3000 kPa, x2 = 0.5749 | 668.75
313.14 K, 3000 kPa, x2 = 0.7995 | 657.26
313.14 K, 3000 kPa, x2 = 0.9308 | 649.73
313.14 K, 4000 kPa, x2 = 0.1654 | 684.9
313.14 K, 4000 kPa, x2 = 0.5749 | 669.74
313.14 K, 4000 kPa, x2 = 0.7995 | 658.29
313.14 K, 4000 kPa, x2 = 0.9308 | 650.78
313.14 K, 5000 kPa, x2 = 0.1654 | 685.84
313.14 K, 5000 kPa, x2 = 0.5749 | 670.74
313.14 K, 5000 kPa, x2 = 0.7995 | 659.31
313.14 K, 5000 kPa, x2 = 0.9308 | 651.85
313.14 K, 6000 kPa, x2 = 0.1654 | 686.8
313.14 K, 6000 kPa, x2 = 0.5749 | 671.71
313.14 K, 6000 kPa, x2 = 0.7995 | 660.34
313.14 K, 6000 kPa, x2 = 0.9308 | 652.92
313.14 K, 7000 kPa, x2 = 0.1654 | 687.71
313.14 K, 7000 kPa, x2 = 0.5749 | 672.72
313.14 K, 7000 kPa, x2 = 0.7995 | 661.38
313.14 K, 7000 kPa, x2 = 0.9308 | 654
313.14 K, 8000 kPa, x2 = 0.1654 | 688.62
313.14 K, 8000 kPa, x2 = 0.5749 | 673.69
313.14 K, 8000 kPa, x2 = 0.7995 | 662.44
313.14 K, 8000 kPa, x2 = 0.9308 | 655.08
313.14 K, 9000 kPa, x2 = 0.1654 | 689.54
313.14 K, 9000 kPa, x2 = 0.5749 | 674.66
313.14 K, 9000 kPa, x2 = 0.7995 | 663.49
313.14 K, 9000 kPa, x2 = 0.9308 | 656.16
313.14 K, 10000 kPa, x2 = 0.1654 | 690.46
313.14 K, 10000 kPa, x2 = 0.5749 | 675.65
313.14 K, 10000 kPa, x2 = 0.7995 | 664.53
313.14 K, 10000 kPa, x2 = 0.9308 | 657.23
313.14 K, 11000 kPa, x2 = 0.1654 | 691.38
313.14 K, 11000 kPa, x2 = 0.5749 | 676.63
313.14 K, 11000 kPa, x2 = 0.7995 | 665.56
313.14 K, 11000 kPa, x2 = 0.9308 | 658.29
313.14 K, 12000 kPa, x2 = 0.1654 | 692.28
313.14 K, 12000 kPa, x2 = 0.5749 | 677.6
313.14 K, 12000 kPa, x2 = 0.7995 | 666.56
313.14 K, 12000 kPa, x2 = 0.9308 | 659.33
313.14 K, 13000 kPa, x2 = 0.1654 | 693.17
313.14 K, 13000 kPa, x2 = 0.5749 | 678.56
313.14 K, 13000 kPa, x2 = 0.7995 | 667.56
313.14 K, 13000 kPa, x2 = 0.9308 | 660.36
313.14 K, 14000 kPa, x2 = 0.1654 | 694.06
313.14 K, 14000 kPa, x2 = 0.5749 | 679.5
313.14 K, 14000 kPa, x2 = 0.7995 | 668.54
313.14 K, 14000 kPa, x2 = 0.9308 | 661.38
313.14 K, 15000 kPa, x2 = 0.1654 | 694.94
313.14 K, 15000 kPa, x2 = 0.5749 | 680.41
313.14 K, 15000 kPa, x2 = 0.7995 | 669.51
313.14 K, 15000 kPa, x2 = 0.9308 | 662.38
313.14 K, 16000 kPa, x2 = 0.1654 | 695.81
313.14 K, 16000 kPa, x2 = 0.5749 | 681.32
313.14 K, 16000 kPa, x2 = 0.7995 | 670.45
313.14 K, 16000 kPa, x2 = 0.9308 | 663.36
313.14 K, 17000 kPa, x2 = 0.1654 | 696.65
313.14 K, 17000 kPa, x2 = 0.5749 | 682.2
313.14 K, 17000 kPa, x2 = 0.7995 | 671.4
313.14 K, 17000 kPa, x2 = 0.9308 | 664.33
